In patent US8946298B2, “Plant disease controlling composition and method for controlling plant disease” (Sumitomo Chemical Company, Limited, priority 2010, dated 2015):

System: gray mold fungus (Botrytis cinerea)
Test: cucumber leaf disk test, preventive value against gray mold
Assay type: in vivo
Details: 15° C., four days
Method: True leaf of cucumber is punched out with cork borer to 13 mm in diameter to prepare a leaf disk. In 24 well microwell plate that is dispensed with 1 ml 0.8% water agar, the leaf disk is placed such that the upper side of the leaf is in an upward direction. Thereto is added 20 micro liter a testing solution prepared by mixing a dimethyl sulfoxide solution of the present compound (racemate) and a dimethyl sulfoxide solution of iminoctadine trialbesilate to a predetermined concentration to treat the leaf disk.
After confirming that the testing medical solution is dried, conidium of gray mold fungus (Botrytis cinerea) is suspended into potato dextrose broth (DIFCO) in a density of about 10^5 conidium/mL and is then subjected to a spray inoculation. After leaving to stand the leaf disk in a growth chamber set up at 15° C. for four days, an onset area on the leaf is measured and then calculated an onset area rate (hereinafter, referred to as an onset area rate of treated group).
The same operation is carried out with 20 micro liter water instead of 20 micro liter a testing medicine solution to calculate an onset area rate (hereinafter, referred to an onset area rate of non-treated group).
A preventive value is calculated from the above onset area rate of treated group and the onset area rate of non-treated group by the following equation: Preventive value (%)=100×(A−B)/A
A: an onset area rate of treated group
B: an onset area rate of non-treated group
The same operations as described in Test Example 1 are carried out with iminoctadine triacetate instead of iminoctadine trialbesilate, so as to calculate a preventive value.
Also for comparison, the same operations as described in Test Example 1 are carried out with the exception that the testing medicine solution is substituted with a predetermined concentration of each dimethyl sulfoxide solution of the present compound (racemate) or iminoctadine triacetate, so as to calculate respective preventive values.
For comparison, the same operations as described in Test Example 1 are carried out with the exception that the testing medicine solution is substituted with a predetermined concentration of a dimethyl sulfoxide solution of iminoctadine triacetate, so as to calculate a preventive value.

SMILES: CC(=O)O.CC(=O)O.CC(=O)O.NC(N)=NCCCCCCCCNCCCCCCCCN=C(N)N [iminoctadine triacetate]
- preventive value (%) (Table 2, iminoctadine triacetate alone 0.5 ppm): 20%
- preventive value (%) (Table 2, iminoctadine triacetate alone 5.0 ppm): 53%
- preventive value (%) (Table 3 (Reference Example), iminoctadine triacetate alone 0.5 ppm): 20%
- preventive value (%) (Table 3 (Reference Example), iminoctadine triacetate alone 5.0 ppm): 56%
